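Method: 48-hour compound exposure of cells in 96-well plates, five concentrations, linear interpolation of endpoints. Here, GI50 denotes the concentration required for 50% inhibition of growth.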 Activity calls are given as the source filed them. No stated cut-off is given here; in the data, active = GI50 up to about 1.1 µM and inactive = higher.
Assays:
Assay in all cases: inhibition of tumour cell growth, NCI panel, 48 h
[1] = tested on: DMS-273
[2] = tested on: UACC-62
[3] = tested on: XF498
[4] = tested on: SF-295
[5] = tested on: COLO 205
[6] = tested on: HCT-15
[7] = tested on: CAKI-1
[8] = tested on: DMS-114
[9] = tested on: Malme-3M
[10] = tested on: M14
[11] = tested on: SK-MEL-2
[12] = tested on: U-251
[13] = tested on: HOP-62
[14] = tested on: MDA-MB-231
[15] = tested on: A498
[16] = tested on: HCT-116
[17] = tested on: ACHN
[18] = tested on: K562
[19] = tested on: NCI-H460
[20] = tested on: MDA-MB-435
[21] = tested on: SNB-75
[22] = tested on: LXFL 529
[23] = tested on: Hs-578T
[24] = tested on: SF-268
[25] = tested on: SF-539
[26] = tested on: SN12C
[27] = tested on: SNB-78
[28] = tested on: SW-620
[29] = tested on: OVCAR-4
[30] = tested on: 786-0
[31] = tested on: TK-10
[32] = tested on: IGROV-1
[33] = tested on: CCRF-CEM
[34] = tested on: RXF 393
[35] = tested on: NCI-H226
[36] = tested on: HCC 2998
[37] = tested on: KM-20L2
[38] = tested on: EKVX
[39] = tested on: MCF7
[40] = tested on: SNB-19
[41] = tested on: MDA-N
[42] = tested on: BT-549
[43] = tested on: LOX IMVI
[44] = tested on: T47D
[45] = tested on: RPMI-8226
[46] = tested on: HL-60
[47] = tested on: OVCAR-5
[48] = tested on: OVCAR-3
[49] = tested on: OVCAR-8
[50] = tested on: UACC-257
[51] = tested on: NCI-H23
[52] = tested on: A549
[53] = tested on: NCI/ADR-RES
[54] = tested on: HT-29
[55] = tested on: SK-MEL-28
[56] = tested on: NCI-H522
[57] = tested on: RXF 631
[58] = tested on: HOP-92
[59] = tested on: SK-MEL-5
[60] = tested on: MOLT-4
[61] = tested on: DU-145
[62] = tested on: SK-OV-3
[63] = tested on: KM12
[64] = tested on: SR
[65] = tested on: HOP-18
[66] = tested on: PC-3
[67] = tested on: DLD-1
[68] = tested on: M19-MEL
[69] = tested on: UO-31

Measured: GI50

O=c1c2ccccc2n2nnc3ccc(NCCNCCO)c1c32
inactive: [1] 2620 nM | [2] 2420 nM | [3] 5700 nM | [4] 2060 nM | [7] 1840 nM | [8] 3200 nM | [9] 1870 nM | [10] 1910 nM | [11] 3190 nM | [13] 2080 nM | [14] 2850 nM | [15] 1890 nM | [16] 1290 nM | [18] 1610 nM | [20] 1340 nM | [21] 1420 nM | [22] 2420 nM | [23] 2030 nM | [24] 1710 nM | [25] 3780 nM | [26] 1430 nM | [27] 7710 nM | [29] 1710 nM | [31] 2790 nM | [32] 2470 nM | [34] 1870 nM | [35] 2290 nM | [36] 1510 nM | [37] 1290 nM | [38] 2080 nM | [39] 3240 nM | [40] 3050 nM | [41] 1690 nM | [42] 2020 nM | [43] 1180 nM | [44] 5820 nM | [45] 1820 nM | [46] 1710 nM | [47] 2340 nM | [48] 1700 nM | [50] 3320 nM | [51] 2310 nM | [52] 1160 nM | [55] 2870 nM | [56] 1820 nM | [57] 1850 nM | [58] 1880 nM | [59] 1530 nM | [62] 2080 nM | [63] 1660 nM | [66] 1290 nM | [67] 2190 nM | [68] 2260 nM
active: [5] 946 nM | [12] 944 nM | [17] 824 nM | [19] 679 nM | [28] 710 nM | [30] 1020 nM | [33] 948 nM | [49] 908 nM | [53] 1080 nM | [54] 740 nM | [60] 361 nM | [61] 112 nM | [64] 649 nM | [65] 183 nM | [69] 863 nM
2030 nM: [6]

COc1ccc(C(=O)c2cc(OC)c(OC)c(OC)c2)cc1
active: [1] 86.3 nM | [2] 50.1 nM | [3] 432 nM | [4] 39.9 nM | [5] 70.6 nM | [7] 73.8 nM | [8] 285 nM | [9] 58.6 nM | [10] 75.3 nM | [11] 342 nM | [12] 206 nM | [13] 700 nM | [14] 88.1 nM | [15] 71.3 nM | [16] 70.3 nM | [18] 39.2 nM | [19] 73.5 nM | [20] 19.7 nM | [21] 72.6 nM | [22] 221 nM | [23] 111 nM | [24] 838 nM | [25] 152 nM | [26] 705 nM | [27] 194 nM | [28] 55.6 nM | [30] 169 nM | [32] 219 nM | [33] 87.9 nM | [34] 331 nM | [35] 1110 nM | [36] 321 nM | [37] 71.5 nM | [38] 484 nM | [39] 99.1 nM | [40] 199 nM | [41] 16 nM | [42] 923 nM | [43] 147 nM | [45] 169 nM | [46] 31 nM | [48] 76.9 nM | [49] 382 nM | [50] 769 nM | [51] 324 nM | [52] 106 nM | [53] 54 nM | [54] 37.2 nM | [55] 733 nM | [56] 71.5 nM | [57] 184 nM | [59] 70.2 nM | [60] 71.5 nM | [61] 205 nM | [63] 48.1 nM | [64] 58.1 nM | [66] 77.5 nM | [67] 204 nM | [68] 893 nM | [69] 1000 nM
inactive: [17] 1290 nM | [29] 28600 nM | [31] 4110 nM | [44] 27500 nM | [47] 5980 nM | [58] 2410 nM | [62] 1140 nM | [65] > 100000 nM
56.6 nM: [6]

CN(C)CCN(C)C(=O)c1cccc2cccc(C(=O)O)c12
active: [11] 723 nM
> 100000 nM: [6]
inactive: [1] > 100000 nM | [2] > 100000 nM | [3] > 100000 nM | [4] > 100000 nM | [5] > 100000 nM | [8] > 100000 nM | [9] > 100000 nM | [10] > 100000 nM | [12] > 100000 nM | [13] > 100000 nM | [15] > 100000 nM | [16] > 100000 nM | [17] > 100000 nM | [18] > 100000 nM | [19] > 100000 nM | [21] > 100000 nM | [22] > 100000 nM | [24] > 100000 nM | [25] > 100000 nM | [26] > 100000 nM | [27] > 100000 nM | [28] > 100000 nM | [29] > 100000 nM | [30] > 100000 nM | [31] > 100000 nM | [32] > 100000 nM | [33] > 100000 nM | [34] > 100000 nM | [35] > 100000 nM | [36] > 100000 nM | [37] > 100000 nM | [38] > 100000 nM | [40] > 100000 nM | [43] > 100000 nM | [45] > 100000 nM | [46] > 100000 nM | [47] > 100000 nM | [48] > 100000 nM | [49] > 100000 nM | [50] > 100000 nM | [51] > 100000 nM | [52] > 100000 nM | [54] > 100000 nM | [55] > 100000 nM | [57] > 100000 nM | [58] > 100000 nM | [59] > 100000 nM | [60] > 100000 nM | [62] > 100000 nM | [64] > 100000 nM | [65] > 100000 nM | [67] > 100000 nM | [68] > 100000 nM | [69] > 100000 nM
